Experiments:
Settings in all cases: main component drawn
B. subtilis 168 [1] = assay: fitness (endpoint OD595 vs no drug) (fraction); higher = more growth
Summary of the method: (§1)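 Bacterial growth was followed in 384-well plates seeded at OD595 0.01, with 30 µl per well, or 55 µl for S. pneumoniae, in TSB, LB Lennox or CY at 37 °C. OD595 was read every 30 min for 14 h, and each reading had the first reading subtracted as background. Fitness is the background-corrected optical density at entry into stationary phase divided by the robust mean of the no-drug control wells. This ratio is capped at 1.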

S. aureus Newman [2] = assay: as above
Summary of the method: as §1

B. subtilis 168 [3] = assay: Bliss interaction score (quartile over a dose matrix) (fitness difference); higher = more antagonism (negative = synergy)
Summary of the method: (§2)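 Fitness was derived from optical density at entry into stationary phase, divided by the robust mean of the no-drug wells on the same plate. That reading was taken as OD595, and the ratio was capped at 1. Single-drug fitness was inferred from the combination data. The Bliss score, observed fitness minus the expected product of single-drug fitness, was summarised as quartiles over technical, biological and donor/recipient replicates.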

S. aureus DSM 20231 = assay: as above
Summary of the method: as §2

S. aureus Newman [4] = assay: as above
Summary of the method: as §2

S. pneumoniae D39V = assay: as above
Summary of the method: as §2
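Throughout, for Bliss interaction score (quartile over a dose matrix): first quartile when negative (synergy) and third quartile when positive (antagonism).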

CC[C@H](C)[C@H](N)C1=N[C@H](C(=O)N[C@@H](CC(C)C)C(=O)N[C@H](CCC(=O)O)C(=O)N[C@H](C(=O)N[C@H]2CCCCNC(=O)[C@H](CC(N)=O)NC(=O)[C@@H](CC(=O)O)NC(=O)[C@H](Cc3cnc[nH]3)NC(=O)[C@@H](Cc3ccccc3)NC(=O)[C@H]([C@@H](C)CC)NC(=O)[C@@H](CCCN)NC2=O)[C@@H](C)CC)CS1 [Bacitracin] + Cc1ncc([N+](=O)[O-])n1CCO [Metronidazole]
fitness
Settings | partner 0.625 µg/mL | partner 0.781 µg/mL | partner 1.25 µg/mL | partner 1.562 µg/mL | partner 2.5 µg/mL | partner 3.124 µg/mL
B. subtilis 168 [1], first compound 37.5 µg/mL | 0.956 | – | 0.931 | – | 0.902 | –
B. subtilis 168 [1], first compound 75 µg/mL | 0.964 | – | 0.931 | – | 0.903 | –
B. subtilis 168 [1], first compound 150 µg/mL | – | – | – | – | 0.811 | –
S. aureus Newman [2], first compound 18.75 µg/mL | 0.741 | 0.702 | 0.757 | 0.716 | 0.743 | 0.687
S. aureus Newman [2], first compound 37.5 µg/mL | 0.308 | 0.21 | 0.243 | 0.243 | 0.181 | 0.26
S. aureus Newman [2], first compound 75 µg/mL | 0.0054 | 0.03 | 0.0112 | 0.0279 | 0.0054 | 0.0683

Settings | Bliss interaction score
B. subtilis 168 [3] | 0.103
S. aureus DSM 20231 | 0.0734
S. aureus Newman [4] | 0.0714
S. pneumoniae D39V | 0.127

CC[C@H](C)[C@H](N)C1=N[C@H](C(=O)N[C@@H](CC(C)C)C(=O)N[C@H](CCC(=O)O)C(=O)N[C@H](C(=O)N[C@H]2CCCCNC(=O)[C@H](CC(N)=O)NC(=O)[C@@H](CC(=O)O)NC(=O)[C@H](Cc3cnc[nH]3)NC(=O)[C@@H](Cc3ccccc3)NC(=O)[C@H]([C@@H](C)CC)NC(=O)[C@@H](CCCN)NC2=O)[C@@H](C)CC)CS1 [Bacitracin] + Cc1onc(-c2ccccc2)c1C(=O)N[C@@H]1C(=O)N2[C@@H]1SC(C)(C)[C@@H]2C(=O)O [Oxacillin]
fitness
Settings | first compound 18.75 µg/mL | first compound 37.5 µg/mL | first compound 75 µg/mL
B. subtilis 168 [1], partner 0.002 µg/mL | – | 0.958 | 0.959
B. subtilis 168 [1], partner 0.004 µg/mL | – | 0.955 | 0.913
B. subtilis 168 [1], partner 0.008 µg/mL | – | 0.924 | 0.835
S. aureus Newman [2], partner 0.0156 µg/mL | 0.534 | 0.0937 | 0.0408
S. aureus Newman [2], partner 0.0312 µg/mL | – | 0.0243 | 0.0443
S. aureus Newman [2], partner 0.0625 µg/mL | 0.0815 | 0.0177 | 0.0488

fitness, B. subtilis 168 [1], one replicate
Settings | partner 0.0078 µg/mL | partner 0.0155 µg/mL | partner 0.031 µg/mL | partner 0.075 µg/mL | partner 0.15 µg/mL | partner 0.3 µg/mL
first compound 37.5 µg/mL | 0.79 | 0.782 | 0.742 | 0.58 | 0.0238 | 0.0295
first compound 75 µg/mL | 0.778 | 0.76 | 0.701 | 0.496 | 0.0193 | 0.0177
first compound 150 µg/mL | 0.447 | 0.36 | 0.316 | 0.242 | 0.0097 | 0.0106

Settings | Bliss interaction score
B. subtilis 168 [3] | -0.0456
S. aureus DSM 20231 | 0.0803
S. aureus Newman [4] | -0.118
S. pneumoniae D39V | -0.107

CC[C@H](C)[C@H](N)C1=N[C@H](C(=O)N[C@@H](CC(C)C)C(=O)N[C@H](CCC(=O)O)C(=O)N[C@H](C(=O)N[C@H]2CCCCNC(=O)[C@H](CC(N)=O)NC(=O)[C@@H](CC(=O)O)NC(=O)[C@H](Cc3cnc[nH]3)NC(=O)[C@@H](Cc3ccccc3)NC(=O)[C@H]([C@@H](C)CC)NC(=O)[C@@H](CCCN)NC2=O)[C@@H](C)CC)CS1 [Bacitracin] + O=C(O)c1cn(C2CC2)c2cc(N3CCNCC3)c(F)cc2c1=O [Ciprofloxacin]
fitness
Settings | first compound 18.75 µg/mL | first compound 37.5 µg/mL | first compound 75 µg/mL | first compound 150 µg/mL
B. subtilis 168 [1], partner 0.0098 µg/mL | – | 0.88 | 0.889 | 0.897
B. subtilis 168 [1], partner 0.0195 µg/mL | – | 0.718 | 0.659 | 0.559
B. subtilis 168 [1], partner 0.039 µg/mL | – | 0.201 | 0.0773 | 0.0355
S. aureus Newman [2], partner 0.0375 µg/mL | 0.524 | 0.199 | 0.0079 | –
S. aureus Newman [2], partner 0.075 µg/mL | – | 0.0916 | 0.013 | –
S. aureus Newman [2], partner 0.15 µg/mL | 0.0536 | 0.0155 | 0.0083 | –

Settings | Bliss interaction score
B. subtilis 168 [3] | -0.0665
S. aureus DSM 20231 | -0.0438
S. aureus Newman [4] | -0.0418
S. pneumoniae D39V | -0.13

CC[C@H](C)[C@H](N)C1=N[C@H](C(=O)N[C@@H](CC(C)C)C(=O)N[C@H](CCC(=O)O)C(=O)N[C@H](C(=O)N[C@H]2CCCCNC(=O)[C@H](CC(N)=O)NC(=O)[C@@H](CC(=O)O)NC(=O)[C@H](Cc3cnc[nH]3)NC(=O)[C@@H](Cc3ccccc3)NC(=O)[C@H]([C@@H](C)CC)NC(=O)[C@@H](CCCN)NC2=O)[C@@H](C)CC)CS1 [Bacitracin] + O=C(O[C@@H]1Cc2c(O)cc(O)cc2O[C@@H]1c1cc(O)c(O)c(O)c1)c1cc(O)c(O)c(O)c1 [EGCG]
fitness
Settings | first compound 18.75 µg/mL | first compound 37.5 µg/mL | first compound 75 µg/mL | first compound 150 µg/mL
B. subtilis 168 [1], partner 6.25 µg/mL | – | 0.876 | 0.885 | 0.827
B. subtilis 168 [1], partner 12.5 µg/mL | – | – | – | 0.562
S. aureus Newman [2], partner 12.5 µg/mL | 0.73 | 0.43 | 0.0108 | –
S. aureus Newman [2], partner 25 µg/mL | 0.632 | 0.283 | 0.0073 | –
S. aureus Newman [2], partner 50 µg/mL | 0.444 | 0.192 | 0.0184 | –

Settings | Bliss interaction score
B. subtilis 168 [3] | 0.0767
S. aureus DSM 20231 | -0.0223
S. aureus Newman [4] | 0.124
S. pneumoniae D39V | -0.0707

— the supplement of paper PMC10627819
